As a reminder, the IC50 is the concentration that gives 50% inhibition. Read a high IC50 as a need for much substance.

Among the data in ChEMBL document CHEMBL2163207, “Predicting new indications for approved drugs using a proteochemometric method” (J Med Chem, 2012) are concentration, IC50 and Activity values, retold here.

Data set [1] concerns Plasma. Put plainly: Plasma concentration in human. It is filed as ADME, cell-free.
In data set [2] the test system is Plasma. The experiment in a line: Plasma concentration in rat. It counts as ADME, cell-free.
The next data set concerns MDA-MB-231. The experiment in a line: Cytotoxicity against human MDA-MB-231 cells after 48 hrs by MTS assay. It is filed as functional, cell-based. The settings on record: MDA-MB-231, 48 h. For orientation: Tetrazolium assays rely on reduction of a dye to a coloured formazan, in cell work by metabolically active cells.
The target of data set [3] is T1, Cadherin-11 (Mus musculus) (UniProt P55288).
T1 sequence (whole entry): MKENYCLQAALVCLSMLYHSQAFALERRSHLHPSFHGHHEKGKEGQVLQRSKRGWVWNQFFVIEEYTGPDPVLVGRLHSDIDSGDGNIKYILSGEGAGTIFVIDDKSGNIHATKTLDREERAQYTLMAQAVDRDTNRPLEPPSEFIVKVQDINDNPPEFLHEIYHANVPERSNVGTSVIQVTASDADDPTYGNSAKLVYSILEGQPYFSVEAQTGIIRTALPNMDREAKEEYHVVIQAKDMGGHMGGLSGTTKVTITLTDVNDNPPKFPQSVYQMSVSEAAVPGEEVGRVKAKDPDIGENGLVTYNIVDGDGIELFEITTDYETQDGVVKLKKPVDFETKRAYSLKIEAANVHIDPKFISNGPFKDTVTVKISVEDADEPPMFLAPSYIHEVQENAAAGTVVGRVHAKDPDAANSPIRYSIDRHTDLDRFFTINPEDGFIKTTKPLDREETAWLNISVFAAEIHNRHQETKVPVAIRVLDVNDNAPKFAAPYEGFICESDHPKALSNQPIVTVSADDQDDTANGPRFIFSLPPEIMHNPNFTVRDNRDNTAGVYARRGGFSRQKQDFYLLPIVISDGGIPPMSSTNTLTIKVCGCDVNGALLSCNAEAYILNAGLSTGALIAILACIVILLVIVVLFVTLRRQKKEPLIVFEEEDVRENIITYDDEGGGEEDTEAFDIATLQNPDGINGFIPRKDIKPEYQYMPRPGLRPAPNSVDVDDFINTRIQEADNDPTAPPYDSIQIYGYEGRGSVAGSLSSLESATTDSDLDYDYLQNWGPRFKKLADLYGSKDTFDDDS
The experiment in a line: Binding affinity to mouse recombinant CDH11 extracellular domain 1-2 by surface plasmon resonance. For orientation: SPR reads the build-up and loss of mass on a sensor chip optically.

Take `Cc1ccc(-c2cc(C(F)(F)F)nn2-c2ccc(S(N)(=O)=O)cc2)cc1` [CELECOXIB]: the concentration with Plasma [1] and with Plasma [2] was 1000 nM each time. The compound further registered an IC50 in the data set with MDA-MB-231 of 40 µM. For the same compound, the Activity result in data set [3] is “Dose-dependent effect”.

In turn, `Cc1ccc(C)c(-c2cc(C(F)(F)F)nn2-c2ccc(S(N)(=O)=O)cc2)c1` [DIMETHYL CELECOXIB] returned an IC50 in the data set on MDA-MB-231 of 36 µM. Also, the Activity result in data set [3] is “Dose-dependent effect”.
